Assay results published in patent US20230015647A1, “INHIBITORS OF HISTONE DEMETHYLASES (PFI-63 AND PFI-90) FOR THE TREATMENT OF CANCER AND FOR THE INHIBITION OF HISTONE DEMETHYLASE IN CELLS” (The United States of America,as represented by the …, priority 2019, published 2023).
“Also recorded” adds a separate entry of the source. Where two headings read alike, the source gives them in different places.

What was measured:
RH4 cells [1] = assay: Cell confluence assay (cytotoxicity) in RH4 cells; type: cell-based; conditions: Homo sapiens, 72 hour time point
Experimental: (§1) A cell confluence assay was performed to further assess the cytotoxicity of PFI-63 in RH4 and RH30 rhabdomyosarcoma cells. Confluence data was collected via photographic images of cells treated with PFI-63 at the following time points: 24 hours, 48 hours, 72 hours, 96 hours and 120 hours. Exemplary dose response curves at 72 hours are presented as FIGS. 10 and 11 in RH4 and RH30 cells, respectively.
as §1, with “to” for “to further”, “PFI-90” for “PFI-63”, “32” for “10”, “33” for “11”

RH30 cells = assay: Cell confluence assay (cytotoxicity) in RH30 cells; type: cell-based; conditions: 72 hour time point
Experimental: as §1
as §1, with “to” for “to further”, “PFI-90” for “PFI-63”, “32” for “10”, “33” for “11”

[2] = test system: rhabdomyosarcoma cells (i.e. RH4 and RH30 cells); assay: Cell confluence / cell number, rhabdomyosarcoma cells taken together; type: cell-based
Experimental: Among the 64 compounds identified above, 33 compounds of unknown mechanism of action were identified.
as §1
as §1, with “to” for “to further”, “PFI-90” for “PFI-63”, “32” for “10”, “33” for “11”

[3] = test system: OSA-CL osteosarcoma cells; assay: Cell confluence assay in OSA-CL osteosarcoma cells; type: cell-based
Experimental: as §1, with “OSA-CL osteosarcoma” for “RH4 and RH30 rhabdomyosarcoma”, “59” for “10”, “60 for PFI-63” for “11 in RH4”, “PFI-90” for “RH30 cells,”

[4] = test system: TC-32 Ewing's sarcoma cells; assay: Cell confluence assay in TC-32 Ewing's sarcoma cells; type: cell-based; conditions: Homo sapiens, TC-32 cells
Experimental: as §1, with “OSA-CL osteosarcoma” for “RH4 and RH30 rhabdomyosarcoma”, “59” for “10”, “60 for PFI-63” for “11 in RH4”, “PFI-90” for “RH30 cells,”
A similar assay was performed to assess the cytotoxicity of PFI-63 and PFI-90 in TC-32 Ewing's sarcoma cells. Exemplary dose response curves at 72 hours are presented as FIGS. 61 and 62 for PFI-63 and PFI-90 respectively.

Log P / solubility = type: physicochemical
RH4 cells [5] = assay: Gene set enrichment analysis (GSEA) of RNASeq gene expression; type: cell-based, human
Experimental: Gene set enrichment analyses (GSEA) were performed according to methods known in the art to evaluate […] in cells treated with PFI-63 as compared to control cells. Briefly, gene expression in RH4 cells treated with PFI-63 was assessed by RNASeq, and the results were statistically compared with various pre-existing gene sets. […] The results also indicate that RH4 cells treated with PFI-63 experience upregulation of targets associated with myogenic differentiation and apoptosis (see FIGS. 18 and 19).
GSEA assays like those performed in Example 3 above, were also performed to assess PFI-90. The results for PFI-90 were similar to those obtained for PFI-63. […] The results also indicate that cells treated with PFI-90 experience upregulation of targets associated with myogenic differentiation and apoptosis (see FIGS. 39-40).

RH4 cells [6] = assay: Western blot (MYOG, cleaved PARP, PAX3-FOXO1); type: cell-based, human
Experimental: The GSEA results were supported by analysis via Western blot. […] This example confirms that PFI-63 disrupts PAX3-FOXO1 super enhancer circuitry. PFI-63 is also associated with upregulation of targets associated with myogenic differentiation and apoptosis.
In RH4 cells treated with PFI-90 at 3 μM, an increase in cleaved PARP (a marker for apoptosis) is observed at 24 hours (FIG. 48). This coincides with a decrease in PAX3-FOXO1 which is also observed at 24 hours (FIG. 49).

histone H3 methylation = assay: Western blot of histone H3 methylation in treated cells; type: cell-based
Description: A diagram illustrating this activity is provided as FIG. 26.
Analysis via Western blot confirms that PFI-90 inhibits lysine demethylase activity.

RH4 cells [7] = assay: Caspase 3 apoptosis assay in RH4 cells; type: cell-based, human
Description: (§2) The impact of PFI-63 and PFI-90 on apoptosis in rhabdomyosarcoma cells was investigated by assaying caspase 3 levels in the cells, and by annexin V staining.

SCMC cells = assay: Caspase 3 apoptosis assay in SCMC cells; type: cell-based, human
Description: as §2

RH4 cells [8] = assay: Annexin V staining; type: cell-based, human; conditions: relative to DMSO control
Description: as §2

[9] = 72 hour time point, read-out: IC50
[10] = approximate, read-out: IC50 (toxic to osteosarcoma cells)
[11] = approximate, read-out: IC50 (toxic to Ewing's sarcoma cells)

SMILES	IC50 (RH4 cells [1]) [nM]	IC50 (RH30 cells) [nM]	IC50 [3, 9] [nM]	IC50 [3, 10] [nM]	IC50 [4, 9] [nM]	IC50 [4, 11] [nM]	logP (Log P / solubility)	GSEA: genes that are induced upon KDM3B suppression (RH4 cells [5])	GSEA: targets associated with apoptosis (RH4 cells [5])	GSEA: targets associated with myogenic differentiation (RH4 cells [5])	GSEA: targets of the PAX3-FOXO1 fusion transcription factor (RH4 cells [5])	caspase 3 (RH4 cells [7])	caspase 3 (SCMC cells)	cell death by annexin V staining (RH4 cells [8])	also measured
O=C(NNc1ccccn1)c1ccccn1 [PFI-90]	812	3200	1900	~2000	1110	~1000	0.82	upregulated	upregulation	upregulation	downregulated	increased caspase 3	increased caspase 3	increase in cell death	cytotoxicity compared with PFI-63 ([2]; rhabdomyosarcoma cells (RH4, RH30)): more cytotoxic to rhabdomyosarcoma cells than PFI-63; solubility (Log P / solubility; relative to PFI-63): improved solubility relative to PFI-63; PAX3-FOXO1 (Western blot) (RH4 cells [6]; 3 μM, 24 hours): decreases; cleaved PARP (Western blot) (RH4 cells [6]; 3 μM, 24 hours): increases; methylation of histone H3 (Western blot) (histone H3 methylation; as the concentration increases): also increases
Cc1cc(C)cc(C(=O)NNC(=O)c2ccccn2)c1 [PFI-63]	3660	4820	7570	~7500	1880	~2000	2.36	upregulated	upregulation	upregulation	downregulated	increased caspase 3	increased caspase 3	increase in cell death	IC50 ([2]; FIGS. 8-9 (cell number by confluency, RH4, RH30, RH30.19luc), read-out: IC50): 2000 to 6000 nM; IC50 ([2]; RH4 and RH30 cells, approximate, read-out: IC50 (toxic to rhabdomyosarcoma cells)): 3000 to 5000 nM; GSEA: targets that are upregulated by GSK-J4 (RH4 cells [5]): upregulated; also recorded: upregulation; GSEA: targets that are upregulated by JIB-04 (RH4 cells [5]): upregulated; also recorded: upregulation; MYOG (Western blot) (RH4 cells [6]): increase; cleaved PARP (Western blot) (RH4 cells [6]): apoptosis; also recorded: increases; H3K4me3 (Western blot) (histone H3 methylation; treated cells): global increase; H3K9me3 (Western blot) (histone H3 methylation; treated cells): global increase; H3K27me3 (Western blot) (histone H3 methylation; treated cells): global increase
